Columns and labels:
[1] = system: A549 cells; assay: Apoptosis by flow cytometry (Annexin V-FITC/PI), A549; assay type: cell-based, human; conditions: A549, 48 h, various concentrations, relative to control
Description: After being digested with trypsin without EDTA, the cells were washed gently with culture medium and twice with cold PBS. The pellet was resuspended in 400 μl of 1× binding buffer, the resuspended cells were transferred to flow tubes, then Annexin V-FITC (5 μl) and propidium iodide (10 μl) were added, and the mixture was incubated for 15 min at room temperature in the dark. The percentage of apoptotic cells was determined by flow cytometry (Backman, CA, USA) and FlowJo V10 software.

[2] = system: PC-9/GR xenografts; assay: PC-9/GR xenografts in BALB/c nude mice; assay type: in vivo; conditions: BH 2.5 mg/kg, gefitinib 25 mg/kg, alone or co-administered, intragastric
[3] = Toxicity study in nude mice: organ index, blood routine, serum biochemistry; assay type: in vivo
Description: At the end of the experiment, blood samples were taken and analyzed by blood routine. […] The lungs and spleen were weighed and recorded. H&E staining of the heart, liver, spleen, lungs, and kidneys was performed to evaluate the cytotoxic effects of BH.

[4] = system: LO2 cells; assay: Toxicity to normal human cell line LO2 (Figure S1); assay type: cell-based
Description: Figure S1. The toxicity of Bruceine H (BH) and Bruceine D (BD) to 16HBE (A) and LO2 (B) cells was evaluated.

[5] = nude mice serum, mean ± SD (Table S4)
[6] = nude mice, routine blood (Table S3)
[7] = nude mice, Gef 25, BH 2.5, Gef + BH 25 + 2.5 mg×kg^-1×d^-1, X±S

CC1=CC(=O)[C@@H](O)[C@]2(C)[C@H]3[C@@H](O)[C@H](O)[C@@]4(CO)OC[C@@]35[C@@H](C[C@@H]12)OC(=O)[C@H](O)[C@]54O [BH, Bruceine H]
early apoptosis rate [1]: increased | tumor growth of PC-9/GR xenografts [2]: slight inhibitory effect | HDL-C [3, 5]: 1.14 ± 0.18 mmol/L | LDL-C [3, 5]: 1.40 ± 0.08 mmol/L | TC [3, 5]: 3.25 ± 0.21 mmol/L | TG [3, 5]: 0.70 ± 0.16 mmol/L | GR [3, 6]: 3.36±2.394 ×10^9/L | GR (%) [3, 6]: 80.567±11.274% | HCT [3, 6]: 62.867±5.658% | HGB [3, 6]: 172.333 ± 12.014 g/L | LY [3, 6]: 0.920±0.401 ×10^9/L | LY (%) [3, 6]: 14.7±6.165% | MCH [3, 6]: 15.567 ± 0.289 pg | MCHC [3, 6]: 296.333 ± 10.970 g/L | MCV [3, 6]: 52.567 ± 1.823 fL | MO [3, 6]: 0.242±0.045 ×10^9/L | MO (%) [3, 6]: 5.043±1.086% | MPV [3, 6]: 7.267 ± 0.208 fL | PCT [3, 6]: 0.753±0.195 mL/L | PLT [3, 6]: 1030±241.156 ×10^9/L | RBC [3, 6]: 13.193±1.792 ×10^12/L | WBC [3, 6]: 6.633±2.371 ×10^8/L | Lung index [3, 7]: 32.463 ± 2.078 g/kg | Spleen index [3, 7]: 5.949 ± 0.526 g/kg | toxicity to LO2 cells [4]: no apparent toxicity

Source: article PMC9024338, “Bruceine H Mediates EGFR-TKI Drug Persistence in NSCLC by Notch3-Dependent β-Catenin Activating FOXO3a Signaling” (Frontiers in Oncology, 2022)
